Drawing on PubChem BioAssay (NCI), this text covers GI50 and TGI for 27 compounds.

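All cell lines were grown in 96-well plates and treated with compound for 48 hours. GI50: concentration for 50% inhibition of growth. TGI denotes the concentration required for complete inhibition of growth.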

Common to all, as to test: growth of human tumour cells (NCI), 48 h
In assay [1] the test system is MDA-MB-231 breast.
Assay [2] has as its system NCI-H460 lung.
The test system of assay [3] is SK-MEL-28 melanoma.
Assay [4] relates to BT-549 breast.
For assay [5], the system named is HOP-62 NSCLC.
Assay [6] deals with MCF7 breast.
For assay [7], the system named is RXF 393 renal.
In assay [8] the test system is MDA-MB-435.
Assay [9] has as its system NCI-H226 lung.
Assay [10] has as its system NCI-H23 lung.
Assay [11] relates to HS 578T breast.

For the compound `CC1(O)COCCCCOc2c(CN)cccc2NC(=O)c2nc(cnc2N)-c2ccc(cc2)S(=O)(=O)C(C)(C)C1` (configuration not stated), the GI50 in assay [1] was 1.37 µM; in assay [2] it was < 0.01 µM; in [3] it was 1.83 µM; in assay [4] it was 1.45 µM; in [5] it was 1.26 µM; in assay [6], < 0.01 µM. The GI50 was 0.015 µM in assay [7] and 1.35 µM in assay [8]. Also, the TGI in assay [1] was determined as 2.82 µM; in assay [2] it was 1.94 µM; in assay [3] it was 3.47 µM; in assay [4] it was 2.91 µM; in [5] it was 3.17 µM; in assay [6], 1.89 µM. Also, the TGI came to 1.87 µM in assay [7] and 2.72 µM in assay [8].

Turning to `Cc1ccc(N=NC(C2=NC(=O)CS2)c2nc3ccccc3[nH]2)cc1` (configuration not stated), the TGI in [9] was > 100 µM; in assay [2], > 100 µM; in assay [3], > 100 µM; in [5], 69.3 µM; in assay [10], > 100 µM.

Turning to `CC1(C=O)CCC23COC4(CCC5C6(C)CCC(OC7OCC(OC8OC(CO)C(O)C(OC9OC(CO)C(O)C(O)C9O)C8OC8OCC(O)C(O)C8O)C(O)C7OC7OC(CO)C(O)C(O)C7O)C(C)(C)C6CCC5(C)C4(C)CC2O)C3C1` (configuration not stated), the TGI in [1] was 0.95 µM; in [9] it was 3.47 µM; in [2], 2.55 µM; in assay [4] it was 3.06 µM; in assay [5], 3.6 µM; in assay [6], 2.07 µM. The compound further gave a TGI in assay [11] of 2.99 µM.

For the compound `CO/N=C(\C)c1cccc(Nc2nc3ccccc3c3occc23)c1`, the TGI in assay [1] came out at 22.8 µM; in assay [9], 7.38 µM; in assay [2], 29.6 µM; in [3], 27.6 µM; in assay [4] it was 26.8 µM; in assay [5], 28.7 µM. Besides, the TGI is 36.8 µM in assay [6], 27.2 µM in [7], 27.2 µM in assay [11] and 25.4 µM in assay [8].

In the case of `CCc1ccc2c(c1)C(=O)c1c-2n(CCCN)c(=O)c2cc([N+](=O)[O-])ccc12`, the GI50 in assay [1] was 1.53 µM; in assay [2] it was 0.167 µM; in assay [3], 1.68 µM; in assay [4], 1.68 µM; in assay [5], 1.37 µM; in assay [6], 0.362 µM. The GI50 in assay [10] was 1.81 µM; in assay [8], 1.56 µM. Also, the TGI in assay [1] turned out to be 2.98 µM; in assay [2], 0.504 µM; in [3] it was 3.2 µM; in [4] it was 3.29 µM; in assay [5], 2.78 µM; in assay [6] it was 1.6 µM. Further, the TGI in assay [10] came to 3.29 µM; in [8], 3 µM.

With `CCOP(=O)(OCC)C(Nc1cccc(F)c1)c1ccc(N(C)C)cc1` (configuration not stated), the TGI in assay [1], in assay [9], in assay [2], in assay [3], in [4] and in [5] was > 100 µM in each case. Moreover, the TGI in assay [6], in assay [10], in [7], in [11] and in [8] was > 100 µM each time.

Regarding `CC1CC(Br)C(=O)O1` (configuration not stated), the TGI in assay [1], in [2], in assay [3], in assay [4], in assay [5] and in assay [6] was > 100 µM each time. Moreover, the TGI in assay [10], in assay [7], in [11] and in assay [8] was > 100 µM in each case.

In the case of `COC(=O)NC1C(C)OC(OC2C/C=C(/C)C3C=CC4C(OC5CC(OC6CC(OC7CC(O)C(O)C(C)O7)C(OC7CC(O)C(OC)C(C)O7)C(C)O6)C(O)C(C)O5)C(C)CC(C)C4C3(C)/C(O)=C3\C(=O)OC4(CC(C)C(CO)=CC4/C=C\2C)C3=O)CC1(C)[N+](=O)[O-]` (configuration not stated), the TGI in assay [1] was 40.2 µM; in assay [2] it was 4.86 µM; in assay [3], 81.3 µM; in assay [4] it was 89.5 µM; in assay [5], 37.8 µM; in [6], > 100 µM. For the same compound, the TGI is 41.5 µM in assay [10], > 100 µM in [11] and > 100 µM in [8].

As for `C[N+](C)(C)CCN[N+]1(C)CCCc2ccccc21` (configuration not stated), the TGI in assay [1], in [9], in [2], in assay [3], in assay [4] and in assay [5] was > 100 µM each time. Further, the TGI in assay [6], in assay [10], in assay [7], in assay [11] and in assay [8] was > 100 µM each time.

On to `COc1cc([N+](=O)[O-])ccc1N1C(=O)C2c3[nH]c4ccccc4c3C3CCC(C(C)(C)C)CC3C2C1=O` (configuration not stated), for which the TGI in assay [1] was 75.5 µM; in assay [9], > 100 µM; in [2] it was > 100 µM; in assay [3] it was 34.7 µM; in assay [4] it was > 100 µM; in assay [5], 81.2 µM. Also, the TGI was > 100 µM in assay [6], > 100 µM in assay [10], 43.4 µM in assay [11] and > 100 µM in [8].

As for `CS(=O)(=O)OCCN(CCOS(C)(=O)=O)c1ccc(/C=N/Nc2ncnc3nc[nH]c23)cc1`, the TGI amounted to 51.7 µM in [9]; 34.3 µM in assay [2]; 63.4 µM in assay [3]; 74.8 µM in assay [5]; 39 µM in assay [10]; 37.9 µM in [7].

Turning to `CCCCCCCN(CCCCCCC)CC(O)c1cc2ccccc2c2cc(Br)ccc12` (configuration not stated), the TGI is > 100 µM in assay [1]; > 100 µM in [2]; > 100 µM in [3]; > 100 µM in assay [5]; 48 µM in assay [6]; > 100 µM in [10]. Besides, in assay [8], the TGI is > 100 µM.

As to `CCO[C@]12CCC[C@H]1[C@@H]1C(=O)c3ccccc3C(=O)C1=C(C)O2`, the TGI is > 100 µM in [1]; > 100 µM in assay [2]; > 100 µM in assay [3]; > 100 µM in assay [5]; 35.8 µM in assay [6]; > 100 µM in [10]. The TGI in [7] is 56.4 µM; in [11] it was > 100 µM; in assay [8] it was > 100 µM.

As to `c1c2c(cc3c1OCO3)-c1cc3ccc4c(c3c[n+]1CC2)OCO4`, the TGI in [1] is > 6.86 µM; in assay [9], > 11.1 µM; in assay [2], 3.55 µM; in [3], > 12.5 µM; in assay [4] it was > 12.5 µM; in assay [5], > 12.5 µM. The TGI in [6] is > 12.5 µM; in assay [10] it was > 12.5 µM; in assay [7], > 12.5 µM; in assay [11], > 12.5 µM; in assay [8], 0.865 µM.

For `Oc1ccc(-c2nc3cc(F)ccc3s2)cc1`, the TGI in [9] was 39.7 µM; in assay [2], 48.8 µM; in assay [3] it was 42.8 µM; in [4], 60.6 µM; in assay [5], 63 µM; in assay [6], 28.5 µM. The TGI in [10] is 83.8 µM; in assay [7], 71.9 µM; in assay [8], 43.1 µM.

On to `Cc1c2cc[n+](C)cc2c(C)c2c1oc1ccccc12`, for which the TGI amounted to 35.2 µM in assay [1]; 10.1 µM in [9]; 16.7 µM in assay [2]; 21.8 µM in assay [3]; 4.39 µM in assay [4]; 11.2 µM in assay [5]. The TGI came to 70.5 µM in assay [6]; 11.2 µM in assay [10]; 70.3 µM in assay [7]; 4.8 µM in [11]; 21.5 µM in assay [8].

For `c1ccc([P+](c2ccccc2)(c2ccccc2)c2ccc(-c3ccc([P+](c4ccccc4)(c4ccccc4)c4ccccc4)cc3)cc2)cc1`, the TGI in assay [1] is 63.5 µM; in assay [9] it was 71 µM; in [2] it was > 100 µM; in [3], > 100 µM; in [4], > 100 µM; in assay [5] it was > 100 µM. Further, the TGI was > 100 µM in assay [6]; 55.3 µM in assay [10]; > 100 µM in assay [7]; > 100 µM in [11]; 84.5 µM in assay [8].

On to `CCOC(=O)Nc1cc2c(c(N)n1)N=C(c1ccc3ccccc3c1)CN2`, for which the TGI was 3.5 µM in assay [9]; 3.33 µM in assay [2]; > 100 µM in [3]; > 57.8 µM in assay [4]; > 100 µM in [6]; 27.4 µM in [7]. Further, the TGI in [11] worked out at 3.16 µM; in assay [8] it was 0.338 µM.

For the compound `CCSc1nc(-c2cccs2)nc2ccc(I)cc12`, the TGI in assay [9], in assay [2], in [3], in assay [4], in assay [5] and in assay [6] was > 100 µM each time. The TGI in [10], in assay [7] and in assay [8] was > 100 µM throughout.

Consider `N=C(N)SCc1cccc([N+](=O)[O-])c1`, for which the TGI in [9] is 67.2 µM; in [2], > 100 µM; in [3], 98.9 µM; in assay [5] it was > 78.1 µM; in assay [6], > 83.8 µM; in assay [10], > 83 µM. In assay [7], this compound registered a TGI of 61.4 µM.

Consider `O=C(NC(Cc1ccc(I)cc1)C(=O)O)c1ccc(Cl)cc1` (configuration not stated), for which the TGI in [9], in assay [2], in assay [3], in assay [5], in assay [6] and in assay [10] was > 100 µM in each case.

For the compound `NCCNCCNc1ccc(NCCNCCN)c2c1C(=O)c1c(O)ccc(O)c1C2=O`, the TGI in [1], in assay [9], in assay [2], in assay [3], in [4] and in [5] was > 100 µM in each case. Further, the TGI in assay [6], in [10], in assay [7], in assay [11] and in assay [8] was > 100 µM in each case.

With `COc1cc([N+](=O)[O-])ccc1NC(=O)c1cccc([N+](=O)[O-])c1O`, the TGI in assay [9] was > 100 µM; in assay [2], > 100 µM; in [3] it was > 100 µM; in assay [5] it was > 100 µM; in [10], 96.9 µM.

Consider `Nc1nc(OCC2CCCCC2)c2[nH]cnc2n1`, for which the TGI in assay [1] was > 100 µM; in assay [9], 73.7 µM; in assay [2] it was > 67.9 µM; in [3], 99.2 µM; in assay [4] it was > 72.9 µM; in assay [5], 53.9 µM. Moreover, the TGI in [6] was > 100 µM; in assay [10], > 100 µM; in assay [7], 57.1 µM; in assay [11], > 44.5 µM; in [8], 60.7 µM.

Regarding `O=C1OC2(OC2c2ccc(Cl)cc2)c2ccccc21` (configuration not stated), the TGI in [9] was > 100 µM; in [2], > 100 µM; in assay [3], > 100 µM; in [5] it was 41.6 µM; in [7], > 100 µM.

As for `CNC(C)Cc1ccccc1OC` (configuration not stated), the TGI in assay [9], in assay [2], in [3], in [5], in assay [10] and in assay [7] was > 100 µM throughout.

Regarding `CN(C)c1ccc(/C=c2/c3ccccc3n3c2cc(NC(=O)NCCC[N+](C)(C)C)[n+]3C)cc1`, the TGI in assay [1], in [2], in assay [3], in assay [4], in assay [5] and in assay [6] was > 100 µM each time. Moreover, the TGI in [10], in assay [7], in [11] and in [8] was > 100 µM throughout.
